Literature values in patent US5496703A, “Indirect immunoassay for dioxinlike compounds” (priority 1993, dated 1996).
Read-outs that look alike come from different tables or passages of the source.

Tests used:
Ah receptor = details: cited from earlier work
AHH [1] = details: responsive C57BL/6J inbred mouse strain; cited from earlier work
AHH [2] = details: nonresponsive DBA/2 inbred mouse strain; cited from earlier work

Compound | binding affinity to Ah receptor (Ah receptor) | AHH induction (AHH [1]) | AHH induction (AHH [2])
c1ccc2c(c1)cc1ccc3cccc4ccc2c1c34 [benzo[a]pyrene] | high affinity |  | 
Cc1ccc2cc3c(ccc4ccccc43)c3c2c1CC3 [3-methylcholanthrene] | high affinity | capable of inducing AHH activity | not in the nonresponsive DBA/2 inbred mouse strain
